Experimental data: patent US6897228B2, “Pyridoxine and pyridoxal analogues: new uses” (Medicure International Inc., priority 2000, dated 2005)
Marks after values point to notes of the source that are not given here.

Legend:
[1] = tested on: platelets (platelet rich plasma); assay: Inhibition of platelet aggregation (aggregometer, platelet rich plasma); assay type: cell-based; conditions: for Extent of aggregation as a percentage amplitude, 1 μg/mL collagen: agonist 1 μg/mL collagen; for Extent of aggregation as a percentage amplitude, 4 μM ADP: agonist 4 μM ADP; for Extent of aggregation as a percentage amplitude, 5 μg/mL collagen: agonist 5 μg/mL collagen; for Extent of aggregation as a percentage amplitude, 12 μM TRAP: agonist 12 μM TRAP
Procedure: Platelet rich plasma (PRP) was obtained by drawing whole blood into sodium citrate tubes (3.2%) and centrifuging at 700 rpm for 10 minutes. Platelet poor plasma (PPP) was obtained by centrifuging the remainder of the sample ntil the platelets were removed (3200 rpm for 10 minutes). The PRP was adjusted to a count of 280×10^9/L using a mixture of PRP and PPP. The incubation mixture consisted of 200 μL of platelets and 25 μL of the appropriate compound (18 mM stock for a final concentration of 2 mM and 4.5 mM stock for a final concentration of 500 μM), rendering an approximate final platelet count in the incubation mixture of 250×10^9/L. After incubation (30 minutes at room temperature, the cuvettes were incubated for 3 minutes at 37° C., transferred to the mixing wells and after the baselines transmittances were measured in an aggregometer (Chrono-Log 4), 25 μL of agonist was added to give a final concentration of 4 μM ADP, 1 μg/mL collagen, 5 μg/mL collagen or 12 μM thrombin receptor activating peptide (TRAP). Final transmittances were then measured in the aggregometer (lower percent transmittance represents higher aggregation). […] Table 24-1 gives the results of the extent of aggregation for several compounds as percentage amplitude read directly from the aggregometer.

[2] = tested on: Male Wistar rats, embolic focal cerebral ischemia (MCA); assay: Neuroprotection in rat embolic stroke model; assay type: in vivo; conditions: for infarction volume: 48 h, mean±SEM; for Hemorrhage rate / Mortality rate (pre-mature death) / Seizure occurrence: n=10; for Neurological deficits (modified Bederson score): median (25-75th percentile)
Description: Male Wistar rats, weighting 300-350 g, were purchased from Charles River, St. Constant, Canada. Embolic focal cerebral ischemia was induced by embolizing a preformed clot into the middle cerebral artery (MCA). (For details of the procedure see Wang C X, Yang Y, Shuaib A. A focal embolic model of cerebral ischemia in rats. Brain Res. Protoc. 7:115-120, 2001. Wang C, Yang T and Shuaib A: An improved version of embolic model of brain ischemic injury in the rat. J. Neurosci. Meth. 109:147-151, 2001).
The study consisted of four groups (n=10). Animals were randomly assigned to one of the four groups. Treatments were started at 1 h after MCA occlusion. […] In the control group, 0.5% DMSO (1.5 ml) was infused.
The procedure for assessment of infarct volume were detailed previously (Bederson J B, Pitts L H, Tsuji M, Nishimura M C, Davis R L, Bartkowski H. Rat middle cerebral artery occlusion: evaluation of the model and development of a neurologic examination. Stroke 17:472-476, 1986. Yang, Y., Shuaib, A., and Li, Q. Quantification of infarct size on focal cerebral ischemia model of rats using a simple and economical method. J. Neurosci. Meth., 84:9-16, 1998). Briefly, at 48 h after ischemia the anesthetized animal was sacrificed by decapitation and the brain removed. The volume of infarction was measured in the brain sections stained with 2,3,5-triphenyltetrazolium chloride (TTC) solution with following formula, corrected infarct size=the volume of the left hemisphere−(the volume of the right hemisphere-measured infarct volume). The percentage of infarct volume was obtained by calculating the portion of the corrected infarct volume and dividing it by the total volume of the left hemisphere. Brain swelling was determined using a formula: swelling (edema)=(volume of the right hemisphere[…])/volume of the left hemisphere. Hemorrhage transformation was identified from the TTC stain brain sections.
Neurological deficits and seizure activities were recorded at 2, 24 and 48 hours after embolization. Neurological deficits were determined using a modified Bederson's scoring system (Bederson J B, Pitts L H, Tsuji M, Nishimura M C, Davis R L, Bartkowski H. Rat middle cerebral artery occlusion: evaluation of the model and development of a neurologic examination. Stroke (17:472-476, 1986). 0: no observable deficit; 1: forelimb flexion; 2: forelimb flexion plus decreased resistance to lateral push; 3: unidirectional circling; 4: unidirectional circling plus decreased level of consciousness. Seizure activity, hemorrhage and mortality were also recorded. […]. Results are shown in Table 25-1
The differences of infarction volume were analyzed with one way ANOVA followed by Dunnett's test. Neurological deficit scores were reported as medians and interquartile ranges, considering 25-75th percentile. The neurological scores were analyzed with Kruskal-Wallis test when more than two groups, and analyzed with Mann-Whitney test when comparison was done in two groups. The rates of mortality and seizure occurrence following different treatments were compared with Chi-square test. Differences were considered significant when p<0.05.

Question: For Cc1ncc(CNc2ccc(-c3ccc(C(=N)N)cc3)cc2)c(CO)c1O [Compound XL], which “Extent of aggregation as a percentage amplitude, 1 μg/mL collagen” value ([1]; compound 500 μM) is on record?
Answer: Its value is 4%.

Question: What about the “Extent of aggregation as a percentage amplitude, 4 μM ADP” value ([1]; compound 500 μM) of the same compound?
Answer: Its value is 9%.

Question: What about the “Extent of aggregation as a percentage amplitude, 5 μg/mL collagen” value ([1]; compound 500 μM) of the same compound?
Answer: Its value is 52%.

Question: What about the “Extent of aggregation as a percentage amplitude, 12 μM TRAP” value ([1]; compound 500 μM) of the same compound?
Answer: Its value is 3%.

Question: What about the “Extent of aggregation as a percentage amplitude, 1 μg/mL collagen” value ([1]; compound 2 mM) of the same compound?
Answer: Its value is 4%.

Question: And the “Extent of aggregation as a percentage amplitude, 4 μM ADP” value ([1]; compound 2 mM)?
Answer: The value was 4%.

Question: What about the “Extent of aggregation as a percentage amplitude, 5 μg/mL collagen” value ([1]; compound 2 mM) of the same compound?
Answer: The value was 5%.

Question: And the “Extent of aggregation as a percentage amplitude, 12 μM TRAP” value ([1]; compound 2 mM)?
Answer: Its value is 4%.

Question: What about the infarction volume ([2]; 10 mg/kg at 1 h after embolization, control 40±2.6%) of the same compound?
Answer: The infarction volume was 30.5±4.8%.

Question: What about the Hemorrhage rate ([2]; 10 mg/kg group, control 1 rat) of the same compound?
Answer: The Hemorrhage rate was 2 rats.

Question: And the “Mortality rate (pre-mature death)” value ([2]; 10 mg/kg group, control 1 rat)?
Answer: The value was 1.

Question: And the Seizure occurrence ([2]; 10 mg/kg group, control 2 rats)?
Answer: The Seizure occurrence was 3 rats.

Question: What about the Ischemic brain edema ([2]; 10 mg/kg, control 5.7±1.3) of the same compound?
Answer: Its Ischemic brain edema is 6.8±1.9.

Question: And the “Neurological deficits (modified Bederson score)” value (“Neurological deficits” for short) ([2]; 10 mg, 2 h after injury)?
Answer: The value was 3 (3-3).

Question: And the “Neurological deficits” value ([2]; 10 mg, 24 h after injury)?
Answer: Its value is 2 (2-3)*.

Question: What about the “Neurological deficits” value ([2]; 10 mg, 48 h after injury) of the same compound?
Answer: Its value is 2 (2-3)*.

Question: And the Ischemic brain edema ([2]; 20 mg/kg)?
Answer: Its Ischemic brain edema is 5.9±1.3.

Question: What about the infarction volume ([2]; 20 mg/kg at 1 h after embolization) of the same compound?
Answer: Its infarction volume is 26.5±4.4%.

Question: What about the Hemorrhage rate ([2]; 20 mg/kg group) of the same compound?
Answer: The Hemorrhage rate was 1 rat.

Question: What about the “Mortality rate (pre-mature death)” value ([2]; 20 mg/kg group) of the same compound?
Answer: The value was 1.

Question: What about the Seizure occurrence ([2]; 20 mg/kg group) of the same compound?
Answer: The Seizure occurrence was 2 rats.

Question: And the “Neurological deficits” value ([2]; 20 mg, 2 h after injury)?
Answer: Its value is 3 (3-3).

Question: And the “Neurological deficits” value ([2]; 20 mg, 24 h after injury)?
Answer: The value was 2 (2-3)*.

Question: And the “Neurological deficits” value ([2]; 20 mg, 48 h after injury)?
Answer: Its value is 2 (2-3)*.

Question: What about the Ischemic brain edema ([2]; 40 mg/kg) of the same compound?
Answer: Its Ischemic brain edema is 7.9±2.1.

Question: What about the infarction volume ([2]; 40 mg/kg at 1 h after embolization) of the same compound?
Answer: The infarction volume was 25.9±3.4%.

Question: What about the Hemorrhage rate ([2]; 40 mg/kg group) of the same compound?
Answer: Its Hemorrhage rate is 2 rats.

Question: And the Seizure occurrence ([2]; 40 mg/kg group)?
Answer: Its Seizure occurrence is 2 rats.

Question: And the “Neurological deficits” value ([2]; 40 mg, 2 h after injury)?
Answer: The value was 3 (3-3).

Question: And the “Neurological deficits” value ([2]; 40 mg, 24 h after injury)?
Answer: The value was 2 (2-3)*.

Question: And the “Neurological deficits” value ([2]; 40 mg, 48 h after injury)?
Answer: The value was 2.5 (2-2)*.
